From ChEMBL document CHEMBL2440025, “Bacterial neuraminidase inhibitory effects of prenylated isoflavones from roots of Flemingia philippinensis” (Bioorg Med Chem, 2013) come the findings set out here.

pIC50, pKi: −log10 of the molar value.

In experiment [1] the target is T1, Sialidase (Clostridium perfringens, UniProt P10481).
T1 sequence (P10481 whole entry): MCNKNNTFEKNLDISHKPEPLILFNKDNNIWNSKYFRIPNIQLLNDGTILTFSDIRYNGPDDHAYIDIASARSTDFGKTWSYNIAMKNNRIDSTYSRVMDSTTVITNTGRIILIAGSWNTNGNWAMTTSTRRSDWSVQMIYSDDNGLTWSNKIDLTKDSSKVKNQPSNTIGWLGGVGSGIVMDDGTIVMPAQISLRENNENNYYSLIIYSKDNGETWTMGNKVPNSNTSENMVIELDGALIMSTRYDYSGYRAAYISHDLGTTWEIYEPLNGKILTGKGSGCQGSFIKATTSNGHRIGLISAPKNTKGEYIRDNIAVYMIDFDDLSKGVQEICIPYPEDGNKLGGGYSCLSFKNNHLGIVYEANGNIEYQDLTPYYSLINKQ
The experiment can be described thus: Non-competitive inhibition of Clostridium perfringens neuraminidase using 4-methylumbelliferyl-alpha-D-N-acetylneuraminic acid sodium salt hydrate as substrate by Dixon plot method.

Experiment [2] addresses T1, Sialidase. The experiment is described as follows: (§1) Inhibition of Clostridium perfringens neuraminidase using 4-methylumbelliferyl-alpha-D-N-acetylneuraminic acid sodium salt hydrate as substrate by fluorimetry.
Experiment [3] deals with T2, Sialidase (Clostridium perfringens) (UniProt P10481).
T2 sequence (whole entry): T1 sequence (P10481 whole entry)
Described as §1.

As for `COc1cc(-c2coc3c(CC=C(C)C)c(O)c(CC=C(C)C)c(O)c3c2=O)ccc1O` [FLEMINGSIN], the pKi – broadly, the Ki on a negative log10 scale, so that one unit is a factor of ten – on Sialidase [1] was 5.43. For the same compound, the pIC50 – broadly, the IC50 on a negative log10 scale, so that one unit is a factor of ten – at Sialidase [2] is 5.43. The inhibition result in experiment [3] is “Dose-dependent effect”.
Regarding `CC(C)=CCc1c2c(c3occ(-c4ccc(O)cc4)c(=O)c3c1O)C=CC(C)(C)O2` [OSAJIN], the negative-log Ki (pKi) at Sialidase [1] is 5.49. In addition, the negative-log IC50 (pIC50) on Sialidase [2] was 5.51. Moreover, the inhibition result in experiment [3] is “Dose-dependent effect”.
Consider `O=c1c(-c2ccc(O)cc2)coc2cc(O)cc(O)c12` [GENISTEIN], for which the pIC50 at Sialidase [2] was 4.92.
For `CC(C)=CCc1c(O)c(CC=C(C)C)c2occ(-c3ccc(O)cc3)c(=O)c2c1O`, the pKi on Sialidase [1] was 5.37. For the same compound, the pIC50 on Sialidase [2] was 5.39. The inhibition entry in experiment [3] is “Dose-dependent effect”.
Taken in the same sequence, the figures for `CC(C)=CCc1cc(-c2coc3cc(O)cc(O)c3c2=O)c(CC=C(C)C)c(O)c1O` were 5.10, 5.11 and “Dose-dependent effect”.
Taken in the same sequence, the figures for `CC(C)=CCc1c2c(c(O)c3c(=O)c(-c4ccc(O)c(O)c4)coc13)C=CC(C)(C)O2` [AURICULASIN] were 6.89, 6.52 and “Dose-dependent effect”.
For the compound `CC(C)=CCc1c(O)c(CC=C(C)C)c2occ(-c3ccc(O)c(O)c3)c(=O)c2c1O`, the pKi at Sialidase [1] was 5.99. The pIC50 at Sialidase [2] is 5.97. Besides, in experiment [3], the inhibition entry is “Dose-dependent effect”.
The like results for `CC(C)=CCc1c(-c2coc3cc(O)cc(O)c3c2=O)cc2c(c1O)OC(C)(C)C=C2` were, in that order, 4.28, 4.25 and “Dose-dependent effect”.
Taken in the same sequence, the figures for `C=CC(C)(C)C1=Cc2c(c(CC=C(C)C)c3occ(-c4ccc(O)c(O)c4)c(=O)c3c2O)OC1(C)C` were 5.87, 5.79 and “Dose-dependent effect”.
Taken in the same sequence, the figures for `C=CC(C)(C)C1=Cc2c(c(CC=C(C)C)c3occ(-c4ccc(O)cc4)c(=O)c3c2O)OC1(C)C` were 5.14, 5.10 and “Dose-dependent effect”.
